≈ marks a conversion by molar mass, not a printed value.
Conditions: buffer; pH 7.4; 200.0 µM

**Q.** For C/C(=C\c1cccc(Cl)c1)C(=O)c1c(C)cc(C)[nH]c1=O, which solubility kinetic is on record?
**A.** > 45.3 µg/mL

**Q.** Which solubility kinetic does the source give for Cc1cccc(S(=O)(=O)NCCc2ccccc2)c1 here?
**A.** 35.7 µg/mL (≈ 130 µM)

**Q.** For CCc1c(C)sc(NC(=O)/C=C/C(=O)O)c1C(N)=O, which solubility kinetic is on record?
**A.** > 42.3 µg/mL

**Q.** With COc1ccc(-c2cc(C(=O)NCc3ccco3)c3ccccc3n2)c(OC)c1 as the compound, how does the solubility kinetic read?
**A.** 8.3 µg/mL (≈ 21.4 µM)

**Q.** For O=C(NCC1CCCO1)c1cccc2ccccc12 (centres undefined), which solubility kinetic is on record?
**A.** > 38.3 µg/mL

**Q.** With O=S(=O)(Nc1ccc(Br)cc1)c1cccc2nonc12 as the compound, how does the solubility kinetic read?
**A.** > 53.1 µg/mL

**Q.** Which solubility kinetic does the source give for Cc1cc(C(=O)OCC(=O)N(C)c2ccccc2)ccc1[N+](=O)[O-] here?
**A.** 42.1 µg/mL (≈ 128 µM)

**Q.** Which solubility kinetic does the source give for COc1ccccc1CN(C)C(=O)c1ccc(S(=O)(=O)Nc2c(C)n(C)n(-c3ccccc3)c2=O)cc1 here?
**A.** > 78.1 µg/mL

**Q.** Which solubility kinetic does the source give for CC(C)(C)OC(=O)N1CCCN(C(=O)c2ccc(Cl)cc2)CC1 here?
**A.** > 50.8 µg/mL

**Q.** With CC(C)CNC(=O)C(=O)Nc1cc2c3c(c1)CCC(=O)N3CCC2 as the compound, how does the solubility kinetic read?
**A.** 5 µg/mL (≈ 15.2 µM)

**Q.** Which solubility kinetic does the source give for Cc1cc(C)n(/C(=C\N(C)C)C(=O)c2cccc([N+](=O)[O-])c2)n1 here?
**A.** > 47.2 µg/mL

**Q.** For O=S(=O)(c1ccc(F)cc1)N1CCc2ccccc2C1, which solubility kinetic is on record?
**A.** 1.2 µg/mL (≈ 4.12 µM)

**Q.** Which solubility kinetic does the source give for COc1ccc(CC(=O)N2CCN(c3ccc(F)cc3)CC2)cc1 here?
**A.** 38.3 µg/mL (≈ 117 µM)

**Q.** With CCCN(CC1CC1)CC(O)c1ccccc1.O=C(O)C(=O)O (centres undefined) as the compound, how does the solubility kinetic read?
**A.** > 48.5 µg/mL

**Q.** Which solubility kinetic does the source give for CC(C)(C)NC(=O)COc1ccc(CNc2ccc3[nH]c(=O)[nH]c3c2)cc1 here?
**A.** 0.8 µg/mL (≈ 2.17 µM)

**Q.** Which solubility kinetic does the source give for O=C(COC(=O)Cc1c(F)cccc1Cl)Nc1ccc2[nH]c(=O)[nH]c2c1 here?
**A.** > 56.7 µg/mL

**Q.** With CC(C)C1Cc2ccccc2-c2[nH]c(=S)[nH]c(=O)c21 (centres undefined) as the compound, how does the solubility kinetic read?
**A.** 27 µg/mL (≈ 99.1 µM)

**Q.** Which solubility kinetic does the source give for C=CCSc1nc2c(c(-c3ccsc3)c1C#N)CN(C)CC2 here?
**A.** 23 µg/mL (≈ 70.2 µM)

**Q.** For CC(=O)Oc1cccc(-c2nc3ccccc3c(=O)o2)c1, which solubility kinetic is on record?
**A.** 7.9 µg/mL (≈ 28.1 µM)

**Q.** For COCN(C#N)c1nc(N(C)C)nc(N(C)C)n1, which solubility kinetic is on record?
**A.** > 37.7 µg/mL

**Q.** For CC(C)COc1ccc(Cc2c(O)[nH]c(=S)[nH]c2=O)cc1, which solubility kinetic is on record?
**A.** 28.9 µg/mL (≈ 94.3 µM)

**Q.** With Cc1csc2c(N3CCN(C(=O)NC(C)(C)C)CC3)ncnc12 as the compound, how does the solubility kinetic read?
**A.** > 50 µg/mL

**Q.** For O=[N+]([O-])c1ccc(NCCCN2CCOCC2)nc1, which solubility kinetic is on record?
**A.** > 39.9 µg/mL

**Q.** With Cc1cccc(C)c1NC(=O)C1CCN(C(=O)c2cccs2)CC1 as the compound, how does the solubility kinetic read?
**A.** 39.1 µg/mL (≈ 114 µM)

**Q.** Which solubility kinetic does the source give for CCCC(=O)N1CCC(CCC(=O)NC2CC2)CC1 here?
**A.** > 40 µg/mL

**Q.** With O=C(NCc1cccs1)c1cccn2c(=O)c3sccc3nc12 as the compound, how does the solubility kinetic read?
**A.** 0.6 µg/mL (≈ 1.76 µM)

**Q.** With CNc1nc2cccnc2s1 as the compound, how does the solubility kinetic read?
**A.** > 24.8 µg/mL

**Q.** Which solubility kinetic does the source give for Clc1ccc(OCC#CCN2CCCC2)cc1.O=C(O)C(=O)O here?
**A.** 45.1 µg/mL

**Q.** For O=C(COC(=O)c1c[nH]c2ccccc12)NC1CCCC1, which solubility kinetic is on record?
**A.** > 42.9 µg/mL

**Q.** Which solubility kinetic does the source give for Cl.O=C(NCCCn1ccnc1)c1ccccc1F here?
**A.** > 42.6 µg/mL

**Q.** For Cc1ccc(C(=O)CN2C(=O)C(C)Oc3ccccc32)cc1 (centres undefined), which solubility kinetic is on record?
**A.** 21.6 µg/mL (≈ 73.1 µM)

**Q.** With Nc1nc(NCCc2ccccc2)nc(NCCO)c1[N+](=O)[O-] as the compound, how does the solubility kinetic read?
**A.** 46.3 µg/mL (≈ 145 µM)

**Q.** Which solubility kinetic does the source give for O=C(/C=C/c1ccc([N+](=O)[O-])s1)N1CCCC1 here?
**A.** > 37.8 µg/mL

**Q.** With COC(=O)C1=C(NC(=O)c2ccccc2[N+](=O)[O-])CCS1 as the compound, how does the solubility kinetic read?
**A.** 8.4 µg/mL (≈ 27.2 µM)

**Q.** With O=C(NC(=S)N1CCN(c2ccccc2)CC1)c1c(F)cccc1F as the compound, how does the solubility kinetic read?
**A.** > 54.2 µg/mL

**Q.** For C#Cc1cccc(C(=O)N2CCCC(Nc3cccc(F)c3)C2)c1 (centres undefined), which solubility kinetic is on record?
**A.** 39.5 µg/mL (≈ 123 µM)

**Q.** For COCCN1CCn2c(nc3cc(NS(C)(=O)=O)ccc32)C1, which solubility kinetic is on record?
**A.** > 48.7 µg/mL

**Q.** Which solubility kinetic does the source give for Cc1ccc(C(=O)NCC(=O)Nc2ccncc2)cc1 here?
**A.** > 40.4 µg/mL

**Q.** For Cc1ccc(NC(=O)Cn2nc(C)c(S(=O)(=O)N(C)C)c2C)cc1, which solubility kinetic is on record?
**A.** > 52.6 µg/mL

**Q.** For CSc1ncccc1C(=O)NC1CCCCCCC1, which solubility kinetic is on record?
**A.** 21.7 µg/mL (≈ 77.9 µM)

**Q.** For O=C(Nc1ccccc1Cl)c1csc(-c2cccnc2)n1, which solubility kinetic is on record?
**A.** 4.3 µg/mL (≈ 13.6 µM)

**Q.** With N#Cc1c(C(F)(F)F)cc(=O)n2c1[nH]c1ccccc12 as the compound, how does the solubility kinetic read?
**A.** > 41.6 µg/mL

**Q.** Which solubility kinetic does the source give for CN(C)/C=C(\C=O)c1onc(-c2ccccc2Cl)c1C#N here?
**A.** 44.8 µg/mL (≈ 148 µM)

**Q.** Which solubility kinetic does the source give for CC(C)(C)N/C=C(\C#N)S(=O)(=O)c1ccc(Br)cc1 here?
**A.** 7.7 µg/mL (≈ 22.4 µM)

**Q.** Which solubility kinetic does the source give for CC(c1ccccc1)n1cnc2ccccc2c1=O (centres undefined) here?
**A.** > 37.5 µg/mL

**Q.** Which solubility kinetic does the source give for Cc1ccc(CNCc2ccco2)cc1.O=C(O)C(=O)O here?
**A.** > 43.7 µg/mL

**Q.** With Cc1ccc(S(=O)(=O)C2(C(=O)NCCc3ccccc3)CC2)cc1 as the compound, how does the solubility kinetic read?
**A.** 50.5 µg/mL (≈ 147 µM)

**Q.** With CC(C)Oc1ccccc1Cn1c(=O)oc2ccccc21 as the compound, how does the solubility kinetic read?
**A.** 9 µg/mL (≈ 31.8 µM)

**Q.** With O=C(COC(=O)Cc1ccc(Br)cc1)NCc1cccs1 as the compound, how does the solubility kinetic read?
**A.** 11.8 µg/mL (≈ 32 µM)

**Q.** For COc1ccc(-c2[nH]c3ccccc3c2SCCN)cc1, which solubility kinetic is on record?
**A.** 31.9 µg/mL (≈ 107 µM)

**Q.** For O=C(Nc1cc(S(=O)(=O)Nc2ccc(Cl)cc2)ccc1O)c1ccc(F)cc1F, which solubility kinetic is on record?
**A.** 4.2 µg/mL (≈ 9.57 µM)

**Q.** For CC(C)(C)C(=O)Nc1nnc(SCC(=O)NC2CC2)s1, which solubility kinetic is on record?
**A.** > 47.2 µg/mL

**Q.** For Cl.O=[N+]([O-])c1cc(CN(CCO)CCO)ccc1O, which solubility kinetic is on record?
**A.** > 43.9 µg/mL

**Q.** Which solubility kinetic does the source give for COc1ccc(CC(=O)N2CCN(c3cccc(Cl)c3)CC2)cc1OC here?
**A.** 48.7 µg/mL (≈ 130 µM)

**Q.** Which solubility kinetic does the source give for Nc1ccc2nc(SCC(=O)c3ccccc3)sc2c1 here?
**A.** 1.8 µg/mL (≈ 5.99 µM)

**Q.** Which solubility kinetic does the source give for CCN(Cc1nc(-c2cccc(C)c2)no1)C(=O)c1ccco1 here?
**A.** 44.4 µg/mL (≈ 143 µM)

**Q.** With O=C(COC(=O)c1ccccn1)Nc1cccc2ccccc12 as the compound, how does the solubility kinetic read?
**A.** > 45.9 µg/mL

**Q.** For NC(=O)C1CCN(CC(=O)Nc2ccc3c(c2)OCCO3)CC1, which solubility kinetic is on record?
**A.** > 47.9 µg/mL

**Q.** For COc1ccc(CCN2C(=O)CSC2=S)cc1OC, which solubility kinetic is on record?
**A.** 6.1 µg/mL (≈ 20.5 µM)

Reference: PubChem BioAssay AID1996
